We go through one compound from patent US7446226B2 (priority 2003, dated 2008).

Common to all, as to settings: in vivo
The test system of assay [1] is sea tulip Balanus improvisus.
The test system of assay [2] is total growth of marine organisms on the panels.
In assay [3] the test system is growth of marine organisms on the painted surfaces.
Assay [4] concerns blue mussel Mytilus edulis.

Regarding `COc1cc(CNC(=O)CCCC/C=C/C(C)C)ccc1O` [capsaicin, (E)-8-methyl-N-vanillyl-6-nonenamide], in assay [1], the “Coverage of the sea tulip Balanus improvisus compared with the 2 other treatments” value is “significantly lower” and the “Reduction in growth measured as coverage of the sea tulip” value stood at 74%. Also, in assay [2], the “Reduction in growth measured as a reduction in wet weight of total growth” value is listed as 64% and the “Wet weight of the total growth on the panels compared with the two other treatments” value is listed as “statistically lower growth”. Further, the “Growth on surfaces by optical comparison with the control surfaces” value in assay [3] is “considerably less growth”. Besides, in assay [4], the “Coverage of the blue mussel Mytilus edulis, difference between the 3 treatments” value was “no statistically significant difference”.
